Source: US11099176B2 (priority 2015, dated 2021)

How the values were obtained:
Assay type in all cases: binding
[1] = tested on: Marinobacter sp. msLacBP6 variant 187C, L70I, SEQ ID NO: 52, Badan conjugate; experiment: Fluorescence titration of conjugate (affinity tuning); parameters: key to appKd (alanine): nb: no binding
[2] = tested on: Marinobacter sp. msLacBP6 variant 187C, F68M, SEQ ID NO: 50, Acrylodan conjugate; experiment: as above; parameters: key to appKd (alanine): nb: no binding
[3] = tested on: Marinobacter sp. msLacBP6 variant 187C, D220E, SEQ ID NO: 56, Acrylodan conjugate; experiment: as above; parameters: key to appKd (alanine): nb: no binding
[4] = tested on: Marinobacter sp. msLacBP6 variant 187C, F68M, SEQ ID NO: 50, Badan conjugate; experiment: as above; parameters: key to appKd (alanine): nb: no binding
[5] = tested on: Marinobacter sp. msLacBP6 variant 187C, F68L, SEQ ID NO: 49, Acrylodan conjugate; experiment: as above; parameters: key to appKd (alanine): nb: no binding
[6] = tested on: Marinobacter sp. msLacBP6 variant 187C, F68L, SEQ ID NO: 49, Badan conjugate; experiment: as above; parameters: key to appKd (alanine): nb: no binding
[7] = tested on: Marinobacter sp. msLacBP6 187C mutants (variants of Table 7); experiment: Affinity summary of msLacBP6 187C affinity-tuning mutants; settings: all mutants
Description: In the PCS we mutated F68 (F98 in ttLacBP1) and D220 (D250 in ttLacBP1). […] It could therefore be considered part of a secondary complementary surface layer (SCS). In the interface we mutated L70 (L100 in ttLacBP1), which is located at the periphery of the lactate-binding site, and forms a contact from the N- to the C-terminal domain across the inter-domain interface.
Both PCS and SCS mutations perturbed the spectral shapes of the lactate-mediated responses. […] These affinity-tuned sensors therefore provide a suitable set for clinical chemistry applications.

[8] = tested on: Marinobacter sp. msLacBP6 variant 187C, D220E, SEQ ID NO: 56, Badan conjugate; experiment: Fluorescence titration of conjugate (affinity tuning); parameters: key to appKd (alanine): nb: no binding
[9] = tested on: Marinobacter sp. msLacBP6 variant 187C, L70I, SEQ ID NO: 52, Acrylodan conjugate; experiment: as above; parameters: key to appKd (alanine): nb: no binding
[10] = tested on: Marinobacter sp. msLacBP6 conjugates (variants of Table 5); experiment: Affinity summary of msLacBP6 single-cysteine conjugates

SMILES: C[C@H](N)C(=O)O [L-alanine]
- appKd (alanine) [1]: n/b
- appKd (alanine) [2]: n/b
- appKd (alanine) [3]: n/b
- appKd (alanine) [4]: n/b
- appKd (alanine) [5]: n/b
- appKd (alanine) [6]: n/b
- binding to L-alanine [7]: None of the mutants bound L-alanine
- appKd (alanine) [8]: n/b
- appKd (alanine) [9]: n/b
- binding to L-alanine [10]: no binding
